Consider one molecule from patent publication US9499614B2, “Methods for modulating protein glycosylation profiles of recombinant protein therapeutics using monosaccharides and oligosaccharides” (AbbVie, Inc., priority 2013, dated 2016).

Assay [1] concerns Cell Line 1. Put plainly: N-glycan oligosaccharide profiling, Cell Line 1 in 3 L laboratory-scale bioreactors. In kind it is cell-based, Chinese Hamster. The conditions noted are these: 50 mM supplement. How it is done: Purified antibodies subjected to additional analytical characterization were purified using MabSelect™ Protein A (GE Healthcare, Piscataway, N.J.) using a low pH, step elution gradient, followed by buffer exchange using Corning Lifesciences (Tewksbury, Mass.) Spin Concentrator X UF columns according to the manufacturers' recommended procedures.
Approximately 200 μg of Protein A purified samples from Cell Lines 1 and 2 were treated with N-glycanase at 37° C. overnight to remove the N-glycans from the protein. The protein was precipitated and the supernatant was taken for subsequent chemical derivatization of the reducing end of the released glycans with 2-aminobenzamide (2-AB) dye. Following the derivatization step, the excess label was removed using clean up cartridges and the samples were analyzed using normal phase HPLC with fluorescent detection. Mobile phase A was 100% acetonitrile and mobile phase B was 50 mM ammonium formate pH 4.4. The glycans were eluted from a polyamide column (Prozyme, Hayward, Calif.) using a shallow gradient. The labeled glycans were detected using a fluorescence detector with an excitation wavelength of 330 nm and an emission wavelength of 420 nm.
(§1) 3 L scale-down model bioreactors were utilized to verify the impact of select sugars on the resulting protein glycosylation profiles. The concentration of the sucrose and tagatose was chosen to minimize any potential adverse impact on cell growth and productivity, but still facilitate a measurable modulation of the glycosylation profile. Cell culture process performance indicators were monitored and measured throughout the respective cultures. Viable cell density, cell viability, lactate, pCO2, osmolality, harvest titer, and harvest N-glycan oligosaccharide data were measured and reported.
3 L scale laboratory bioreactors were utilized to verify the impact of sucrose, tagatose, or fructose on protein glycosylation profiles. Concentrations of the sugars were chosen to minimize any potential adverse impacts on cell growth and productivity, but still facilitate a measurable impact on the glycoform profile. Cell culture process performance indicators were monitored and measured throughout the study. Viable cell density, cell viability, lactate, pCO2, osmolality, harvest titer, and harvest N-glycan oligosaccharide data was measured and reported.

Assay [2] concerns Cell Line 1. Put plainly: 3 L laboratory-scale bioreactor culture of Cell Line 1, cell culture performance. In kind it is cell-based, Chinese Hamster. How it is done:
Two recombinant Chinese Hamster Ovary (CHO) cell lines expressing two different humanized monoclonal antibodies (Antibody 1, Antibody 2) were evaluated in two different culture vessels (shaker flasks and laboratory scale bioreactors). Both cell lines were of CHO DUX-B11 origin based on a dhfr (dihydrofolate reductase) expression system. Both cell lines were cultured in the same chemically defined basal media (CDBM), with Cell Line 1 also utilizing a chemically-defined feed media (CDFM). Each of the respective media were supplemented with selected monosaccharides and oligosaccharides to evaluate their potential impact on the resulting N-glycan oligosaccharide profile. In preparing the cultures, the cell lines were serially expanded through separate seed train inoculums to generate enough cells for inoculation.
Viable cell density (VCD) and cell viability values were measured through trypan blue exclusion via Cedex automated cell counters (Roche Applied Science, Indianapolis, Ind.), glucose and lactate values were measured with a ABL-805 (Radiometer Medical, Denmark) blood gas analyzer. Offline pH, dissolved oxygen (DO), and pCO2 measurements were performed with a ABL-805 (Radiometer Medical, Denmark) blood gas analyzer. Osmolality was measured on a Multi-Osmette 2430 osmometer (Precision Systems, Natick, Mass.).
Antibody titers were measured from crude cell culture harvests on a Poros A™ (Life Technologies, Carlsbad, Calif.) affinity column using an Agilent (Santa Clara, Calif.) 1200 Series HPLC, or equivalent, operating with a low pH, step elution gradient with detection at 280 nm. Absolute concentrations were assigned with respect to reference standard calibration curves.
as §1
Two recombinant Chinese Hamster Ovary (CHO) cell lines expressing two different recombinant glycoproteins were evaluated in two different cultures vessels (shaker flasks and 3 L laboratory scale bioreactors). Cell Line 1 expressed Antibody 1, Cell Line 2 expressed Dual Variable Domain Immunoglobulin 1 (DVD 1) and Cell Line 3 expressed Antibody 2. Antibodies 1 and 2 are IgG1 proteins, and DVD 1 is an immunoglobulin with two variable domains as documented previously (Wu C. et al., (2007) Nat. Biotechnol 25(11):1290-1297). All cell lines were of CHO DUX-B11 origin based on a dhfr (dihydrofolate reductase) expression system. All cell lines were cultured in the same chemically defined basal media. Cell lines 1 and 2 were fed with the same chemically-defined feed media, but Cell Line 1 was fed media that was formulated at a 50% higher concentration. Each of the respective media were supplemented with either sucrose or tagatose to evaluate their potential impact on the resulting N-glycan oligosaccharide profile. All sugars were purchased from Sigma-Aldrich (St. Louis, Mo.). In preparation of the cultures, the cell lines were serially expanded through separate seed train inoculums to generate enough cells for inoculation.
Viable cell density (VCD) and cell viability values were measured through trypan blue exclusion via Cedex automated cell counters (Roche Applied Science, Indianapolis, Ind.), glucose and lactate values were measured with a ABL-805 (Radiometer Medical, Denmark) blood gas analyzer. Offline pH, dissolved oxygen (DO), and pCO2 measurements were performed with an ABL-805 (Radiometer Medical, Denmark) blood gas analyzer. […]

In the case of `O=C(CO)[C@@H](O)[C@H](O)[C@H](O)CO` [fructose, reference compound], the “changes in protein glycosylation compared to the control” value in the assay with Cell Line 1 [1] is on record as “did not facilitate any significant changes in protein glycosylation”. For the same molecule, in the assay on Cell Line 1 [2] (50 mM supplement vs control), the Osmolality entry is “only slightly higher”, the cell viability entry was “no impact” and the viable cell density result was “no impact”. For the same molecule, the “final harvest titer ratio” value with Cell Line 1 [2] (50 mM supplement, relative to unsupplemented control) was determined as 0.81.
